What was measured:
[1] = molecular target: Beta-3 adrenergic receptor (Homo sapiens, UniProt P13945); experiment: DRUGMATRIX: Adrenergic beta3 radioligand binding (ligand: [125I] Cyanopindolol); format: cell membranes, HEK293, Membrane; settings: hek293; Not Active = under 50% inhibition at 10 µM
Mu-type opioid receptor = Mu-type opioid receptor (Homo sapiens, UniProt P35372); experiment: DRUGMATRIX: Opiate mu (OP3, MOP) radioligand binding (ligand: [3H] Diprenorphine); format: cell membranes, CHO-K1, Membrane; settings: cho-k1; Not Active = under 50% inhibition at 10 µM
[2] = DRUGMATRIX: GABAA, Muscimol, Central radioligand binding (ligand: [3H] Muscimol); format: cell membranes, Rattus norvegicus, Wistar, Brain, Membrane; settings: Not Active = under 50% inhibition at 10 µM
[3] = molecular target: Kappa-type opioid receptor (Homo sapiens, UniProt P41145); experiment: DRUGMATRIX: Opiate kappa (OP2, KOP) radioligand binding (ligand: [3H] Diprenorphine); format: cell membranes, HEK293, Membrane; settings: hek293; Not Active = under 50% inhibition at 10 µM
[4] = molecular target: Aldo-keto reductase family 1 member B1 (Rattus norvegicus, UniProt P07943); format: tissue-based, Lens of camera-type eye;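 further: inhibition of aldose reductase enzyme activity, measured with DL-glyceraldehyde as the substrate; in other assays of this panel Not Active means under 50% inhibition at 10 µM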
[5] = molecular target: Beta-1 adrenergic receptor (Homo sapiens, UniProt P08588); experiment: DRUGMATRIX: Adrenergic beta1 radioligand binding (ligand: [125I] Cyanopindolol); format: cell membranes, CHO-K1, Membrane; settings: cho-k1; Not Active = under 50% inhibition at 10 µM
[6] = molecular target: T1, 5-hydroxytryptamine receptor 1A (Rattus norvegicus, UniProt P19327); format: cell membranes, CHO-K1, Membrane; settings: cho-k1; further: in other assays of this panel Not Active means under 50% inhibition at 10 µM
T1 sequence (P19327 whole entry): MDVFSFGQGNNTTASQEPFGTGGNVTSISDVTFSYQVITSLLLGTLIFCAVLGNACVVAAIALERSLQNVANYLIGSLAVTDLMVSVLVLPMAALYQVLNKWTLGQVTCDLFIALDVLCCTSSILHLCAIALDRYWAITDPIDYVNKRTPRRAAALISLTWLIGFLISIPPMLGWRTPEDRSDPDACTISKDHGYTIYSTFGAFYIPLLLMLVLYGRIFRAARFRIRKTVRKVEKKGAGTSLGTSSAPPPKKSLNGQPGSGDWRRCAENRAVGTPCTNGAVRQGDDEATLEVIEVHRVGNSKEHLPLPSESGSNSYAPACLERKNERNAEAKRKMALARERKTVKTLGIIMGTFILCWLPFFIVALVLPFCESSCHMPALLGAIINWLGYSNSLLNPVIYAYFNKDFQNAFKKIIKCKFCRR

[7] = molecular target: 5-hydroxytryptamine receptor 1B (Rattus norvegicus, UniProt P28564); format: cell membranes, Wistar, Cerebral cortex, Membrane; further: in other assays of this panel Not Active means under 50% inhibition at 10 µM
Melanocortin receptor 4 = Melanocortin receptor 4 (Homo sapiens, UniProt P32245); format: cell membranes, Membrane; settings: hek293; further: in other assays of this panel Not Active means under 50% inhibition at 10 µM
[8] = DRUGMATRIX: GABAA, Flunitrazepam, Central radioligand binding (ligand: [3H] Flunitrazepam); format: cell membranes, Rattus norvegicus, Wistar, Brain, Membrane; settings: Not Active = under 50% inhibition at 10 µM
[9] = molecular target: Sigma non-opioid intracellular receptor 1 (Homo sapiens, UniProt Q99720); experiment: DRUGMATRIX: Sigma1 radioligand binding (ligand: [3H] Haloperidol); format: cell membranes, Jurkat, Membrane; settings: jurkat; Not Active = under 50% inhibition at 10 µM
[10] = molecular target: T2, Alpha-1D adrenergic receptor (Homo sapiens, UniProt P25100); format: cell membranes, HEK293, Membrane; settings: hek293; further: in other assays of this panel Not Active means under 50% inhibition at 10 µM
T2 sequence (P25100 whole entry): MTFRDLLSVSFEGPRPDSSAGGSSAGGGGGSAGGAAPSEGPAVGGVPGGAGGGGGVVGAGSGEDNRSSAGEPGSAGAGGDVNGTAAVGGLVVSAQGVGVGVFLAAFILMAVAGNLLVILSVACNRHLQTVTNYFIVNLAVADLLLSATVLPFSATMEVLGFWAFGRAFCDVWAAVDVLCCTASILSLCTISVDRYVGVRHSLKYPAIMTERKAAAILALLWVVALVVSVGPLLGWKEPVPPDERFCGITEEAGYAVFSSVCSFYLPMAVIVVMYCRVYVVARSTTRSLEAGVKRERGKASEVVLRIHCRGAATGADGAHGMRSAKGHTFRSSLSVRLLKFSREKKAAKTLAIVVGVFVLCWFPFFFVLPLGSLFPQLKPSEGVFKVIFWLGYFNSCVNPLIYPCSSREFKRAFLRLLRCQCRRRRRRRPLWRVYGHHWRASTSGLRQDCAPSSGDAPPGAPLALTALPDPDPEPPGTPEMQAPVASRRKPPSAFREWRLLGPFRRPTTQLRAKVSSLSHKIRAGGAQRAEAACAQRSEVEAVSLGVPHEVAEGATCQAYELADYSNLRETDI

[11] = DRUGMATRIX: Serotonin (5-Hydroxytryptamine) 5-HT3 radioligand binding (ligand: [3H] GR-65630); format: cell membranes, Membrane; settings: hek293; Not Active = under 50% inhibition at 10 µM
[12] = molecular target: T3, Cholecystokinin receptor type A (Homo sapiens, UniProt P32238); format: cell membranes, Membrane; settings: 1321-n1; further: in other assays of this panel Not Active means under 50% inhibition at 10 µM
T3 sequence (P32238 whole entry): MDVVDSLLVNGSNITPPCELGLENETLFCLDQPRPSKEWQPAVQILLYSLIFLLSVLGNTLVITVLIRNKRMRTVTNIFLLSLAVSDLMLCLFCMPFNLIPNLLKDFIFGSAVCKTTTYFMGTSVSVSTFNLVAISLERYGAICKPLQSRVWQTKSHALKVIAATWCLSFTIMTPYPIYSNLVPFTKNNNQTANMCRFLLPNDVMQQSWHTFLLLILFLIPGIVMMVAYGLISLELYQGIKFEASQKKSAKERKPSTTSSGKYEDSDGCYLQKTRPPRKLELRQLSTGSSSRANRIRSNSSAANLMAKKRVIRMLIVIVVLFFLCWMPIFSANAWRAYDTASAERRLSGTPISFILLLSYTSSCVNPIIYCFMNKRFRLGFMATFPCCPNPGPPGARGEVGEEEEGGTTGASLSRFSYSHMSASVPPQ

[13] = DRUGMATRIX: Calcium Channel Type L, Phenylalkylamine radioligand binding (ligand: [3H] (-)-Desmethoxyverapamil (D-888)); format: cell membranes, Rattus norvegicus, Wistar, Brain, Membrane; settings: Not Active = under 50% inhibition at 10 µM
[14] = DRUGMATRIX: Calcium Channel Type L, Benzothiazepine radioligand binding (ligand: [3H] Diltiazem); format: cell membranes, Rattus norvegicus, Wistar, Brain, Membrane; settings: Not Active = under 50% inhibition at 10 µM
[15] = DRUGMATRIX: Tumor Necrosis Factor (TNF), Non-Selective radioligand binding (ligand: [125I] TNF-alpha); format: cell membranes, Membrane; settings: u-937; Not Active = under 50% inhibition at 10 µM
[16] = DRUGMATRIX: Imidazoline I2, Central radioligand binding (ligand: [3H] Idazoxan); format: cell membranes, Rattus norvegicus, Wistar, Cerebral cortex, Membrane; settings: Not Active = under 50% inhibition at 10 µM
Insulin receptor = Insulin receptor (Rattus norvegicus, UniProt P15127); format: cell membranes, Wistar, Liver, Membrane; further: in other assays of this panel Not Active means under 50% inhibition at 10 µM
[17] = molecular target: 5-hydroxytryptamine receptor 4 (Cavia porcellus, UniProt O70528); format: cell membranes, Dunkin-Hartley, Striatum, Membrane; further: in other assays of this panel Not Active means under 50% inhibition at 10 µM
Sequence of 5-hydroxytryptamine receptor 4 (O70528 whole entry): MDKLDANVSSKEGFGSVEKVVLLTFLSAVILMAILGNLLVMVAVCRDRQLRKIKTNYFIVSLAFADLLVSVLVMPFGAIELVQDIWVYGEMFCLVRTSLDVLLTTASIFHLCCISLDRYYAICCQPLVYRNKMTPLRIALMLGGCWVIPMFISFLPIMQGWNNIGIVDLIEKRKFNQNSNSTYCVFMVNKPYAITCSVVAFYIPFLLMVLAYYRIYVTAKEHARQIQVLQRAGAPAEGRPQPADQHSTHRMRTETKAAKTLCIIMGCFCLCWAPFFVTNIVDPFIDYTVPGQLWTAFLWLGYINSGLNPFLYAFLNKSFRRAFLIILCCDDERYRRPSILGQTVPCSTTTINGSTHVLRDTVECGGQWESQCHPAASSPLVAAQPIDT

Sequence of Beta-3 adrenergic receptor (P13945 whole entry): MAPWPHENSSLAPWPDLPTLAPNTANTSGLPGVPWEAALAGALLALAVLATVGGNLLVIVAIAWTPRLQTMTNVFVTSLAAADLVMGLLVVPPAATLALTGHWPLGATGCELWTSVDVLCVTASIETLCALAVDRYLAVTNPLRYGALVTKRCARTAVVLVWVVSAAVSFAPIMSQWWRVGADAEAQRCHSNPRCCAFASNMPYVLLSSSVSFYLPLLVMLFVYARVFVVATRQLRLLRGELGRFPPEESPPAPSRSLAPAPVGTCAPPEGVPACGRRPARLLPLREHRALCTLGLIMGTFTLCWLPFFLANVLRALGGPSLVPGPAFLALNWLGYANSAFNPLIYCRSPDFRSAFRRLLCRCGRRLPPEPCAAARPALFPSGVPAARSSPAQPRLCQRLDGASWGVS
Sequence of Sigma non-opioid intracellular receptor 1 (Q99720 whole entry): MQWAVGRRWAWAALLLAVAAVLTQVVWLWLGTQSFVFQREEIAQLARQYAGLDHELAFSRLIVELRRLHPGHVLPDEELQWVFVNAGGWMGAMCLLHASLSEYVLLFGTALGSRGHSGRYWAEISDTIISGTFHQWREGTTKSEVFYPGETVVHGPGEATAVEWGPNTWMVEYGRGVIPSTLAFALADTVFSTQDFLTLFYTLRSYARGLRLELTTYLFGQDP
Sequence of Mu-type opioid receptor (P35372 whole entry): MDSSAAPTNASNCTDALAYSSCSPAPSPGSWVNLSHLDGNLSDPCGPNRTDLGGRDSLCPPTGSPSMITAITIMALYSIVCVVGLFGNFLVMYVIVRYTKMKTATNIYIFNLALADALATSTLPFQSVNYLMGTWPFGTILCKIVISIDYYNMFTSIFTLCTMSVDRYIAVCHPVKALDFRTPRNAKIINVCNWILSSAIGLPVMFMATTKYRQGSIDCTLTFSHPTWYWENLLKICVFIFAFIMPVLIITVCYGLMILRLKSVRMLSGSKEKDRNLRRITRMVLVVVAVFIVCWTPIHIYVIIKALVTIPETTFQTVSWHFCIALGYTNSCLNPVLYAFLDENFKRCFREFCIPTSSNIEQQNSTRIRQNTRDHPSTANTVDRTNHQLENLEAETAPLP
Sequence of Insulin receptor (P15127 27-759 limits assumed): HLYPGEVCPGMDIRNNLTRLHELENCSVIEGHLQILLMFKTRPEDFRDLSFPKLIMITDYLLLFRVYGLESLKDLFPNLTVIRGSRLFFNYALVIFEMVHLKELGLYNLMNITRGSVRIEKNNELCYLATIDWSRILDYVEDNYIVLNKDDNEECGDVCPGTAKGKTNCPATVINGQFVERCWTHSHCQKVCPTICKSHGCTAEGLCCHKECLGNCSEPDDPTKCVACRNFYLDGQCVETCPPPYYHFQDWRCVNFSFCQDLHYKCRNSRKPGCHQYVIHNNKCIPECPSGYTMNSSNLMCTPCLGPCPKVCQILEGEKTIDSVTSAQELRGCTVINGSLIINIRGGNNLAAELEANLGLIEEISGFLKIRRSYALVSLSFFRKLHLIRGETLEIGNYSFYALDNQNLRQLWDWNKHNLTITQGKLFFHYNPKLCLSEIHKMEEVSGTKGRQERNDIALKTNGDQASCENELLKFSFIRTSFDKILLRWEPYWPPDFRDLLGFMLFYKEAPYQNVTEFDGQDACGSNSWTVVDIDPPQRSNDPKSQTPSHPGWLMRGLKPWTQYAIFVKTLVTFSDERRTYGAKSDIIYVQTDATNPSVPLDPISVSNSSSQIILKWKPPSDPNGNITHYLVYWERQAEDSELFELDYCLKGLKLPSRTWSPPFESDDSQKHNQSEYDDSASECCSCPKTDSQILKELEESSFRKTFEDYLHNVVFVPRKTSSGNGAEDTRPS
Sequence of Insulin receptor (P15127 764-1383 limits assumed): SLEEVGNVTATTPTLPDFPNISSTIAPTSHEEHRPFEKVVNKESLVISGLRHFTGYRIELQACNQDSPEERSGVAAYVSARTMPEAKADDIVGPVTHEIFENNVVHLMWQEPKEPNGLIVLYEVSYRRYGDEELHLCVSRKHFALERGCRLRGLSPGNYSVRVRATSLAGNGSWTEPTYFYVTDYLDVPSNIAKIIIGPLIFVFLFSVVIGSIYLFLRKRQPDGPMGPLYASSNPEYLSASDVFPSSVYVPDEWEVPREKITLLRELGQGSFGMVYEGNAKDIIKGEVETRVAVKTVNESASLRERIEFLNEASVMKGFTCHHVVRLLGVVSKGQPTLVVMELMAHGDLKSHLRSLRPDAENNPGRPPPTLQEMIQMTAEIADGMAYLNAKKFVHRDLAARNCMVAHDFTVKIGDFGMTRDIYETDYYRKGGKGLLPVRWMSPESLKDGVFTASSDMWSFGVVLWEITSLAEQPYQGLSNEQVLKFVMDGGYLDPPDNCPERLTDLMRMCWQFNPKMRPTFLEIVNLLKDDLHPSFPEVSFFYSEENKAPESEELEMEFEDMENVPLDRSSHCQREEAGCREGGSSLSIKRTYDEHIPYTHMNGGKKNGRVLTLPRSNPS
Sequence of Kappa-type opioid receptor (P41145 whole entry): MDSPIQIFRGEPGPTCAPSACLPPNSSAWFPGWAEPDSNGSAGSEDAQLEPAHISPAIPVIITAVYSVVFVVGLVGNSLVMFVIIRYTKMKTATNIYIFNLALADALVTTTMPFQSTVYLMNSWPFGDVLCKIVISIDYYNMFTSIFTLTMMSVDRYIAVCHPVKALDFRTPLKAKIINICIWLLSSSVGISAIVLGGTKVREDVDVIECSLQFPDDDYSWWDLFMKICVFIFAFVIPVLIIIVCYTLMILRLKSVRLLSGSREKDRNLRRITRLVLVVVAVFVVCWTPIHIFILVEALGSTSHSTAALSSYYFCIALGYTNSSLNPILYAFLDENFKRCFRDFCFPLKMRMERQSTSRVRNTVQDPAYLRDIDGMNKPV
Sequence of 5-hydroxytryptamine receptor 1B (P28564 whole entry): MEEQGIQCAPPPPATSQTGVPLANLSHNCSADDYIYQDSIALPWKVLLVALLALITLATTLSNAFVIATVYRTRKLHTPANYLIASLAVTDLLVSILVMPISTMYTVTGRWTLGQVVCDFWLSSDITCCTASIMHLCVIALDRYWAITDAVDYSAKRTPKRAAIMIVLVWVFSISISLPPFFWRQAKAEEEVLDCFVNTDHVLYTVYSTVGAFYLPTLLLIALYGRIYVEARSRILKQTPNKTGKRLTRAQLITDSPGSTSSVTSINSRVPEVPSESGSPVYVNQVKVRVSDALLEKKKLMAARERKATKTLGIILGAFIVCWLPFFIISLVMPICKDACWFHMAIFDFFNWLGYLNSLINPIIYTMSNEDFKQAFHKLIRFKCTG
Sequence of Melanocortin receptor 4 (P32245 whole entry): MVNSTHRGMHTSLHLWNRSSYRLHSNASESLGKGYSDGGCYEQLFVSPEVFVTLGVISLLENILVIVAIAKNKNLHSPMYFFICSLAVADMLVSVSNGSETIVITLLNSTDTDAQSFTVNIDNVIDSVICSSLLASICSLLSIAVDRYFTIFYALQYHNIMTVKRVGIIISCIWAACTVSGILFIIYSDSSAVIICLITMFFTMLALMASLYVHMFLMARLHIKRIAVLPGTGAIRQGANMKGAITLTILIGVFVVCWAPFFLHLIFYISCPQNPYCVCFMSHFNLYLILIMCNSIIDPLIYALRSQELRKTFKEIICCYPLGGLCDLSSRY
Sequence of Beta-1 adrenergic receptor (P08588 whole entry): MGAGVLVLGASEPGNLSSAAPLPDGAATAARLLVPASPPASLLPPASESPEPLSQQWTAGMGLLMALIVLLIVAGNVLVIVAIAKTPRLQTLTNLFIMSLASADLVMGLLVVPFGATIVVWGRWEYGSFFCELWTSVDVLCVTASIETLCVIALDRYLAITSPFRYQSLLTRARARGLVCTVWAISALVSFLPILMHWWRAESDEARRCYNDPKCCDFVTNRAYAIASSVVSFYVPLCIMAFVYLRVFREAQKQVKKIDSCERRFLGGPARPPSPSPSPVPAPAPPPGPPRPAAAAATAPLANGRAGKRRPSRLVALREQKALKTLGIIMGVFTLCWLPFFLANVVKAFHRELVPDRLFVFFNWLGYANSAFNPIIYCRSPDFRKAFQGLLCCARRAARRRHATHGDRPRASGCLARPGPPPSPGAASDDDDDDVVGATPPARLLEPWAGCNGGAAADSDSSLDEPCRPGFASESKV

CN[C@@H]1[C@@H](O)[C@@H](O[C@@H]2[C@@H](O)[C@H](O[C@H]3OC(CN)=CC[C@H]3N)[C@@H](N)C[C@H]2N)OC[C@]1(C)O [SISOMICIN]
Not Active: IC50 [1] | IC50 (Mu-type opioid receptor) | IC50 [2] | Ki [2] | IC50 [3] | IC50 [4] | IC50 [5] | IC50 [6] | IC50 [7] | IC50 (Melanocortin receptor 4) | IC50 [8] | Ki [8] | IC50 [9] | IC50 [10] | IC50 [11] | Ki [11] | IC50 [12] | IC50 [13] | Ki [13] | IC50 [14] | Ki [14] | IC50 [15] | Ki [15] | IC50 [16] | Ki [16] | IC50 (Insulin receptor) | IC50 [17]

Clc1ccc(C(c2ccccc2Cl)C(Cl)Cl)cc1 (configuration not stated) [MITOTANE]
Not Active: IC50 [1] | IC50 (Mu-type opioid receptor) | IC50 [2] | Ki [2] | IC50 [3] | IC50 [4] | IC50 [5] | IC50 [6] | IC50 [7] | IC50 (Melanocortin receptor 4) | IC50 [8] | Ki [8] | IC50 [9] | IC50 [10] | IC50 [11] | Ki [11] | IC50 [12] | IC50 [13] | Ki [13] | IC50 [14] | Ki [14] | IC50 [15] | Ki [15] | IC50 [16] | Ki [16] | IC50 (Insulin receptor) | IC50 [17]

CN(C)[C@@H]1C(O)=C(C(N)=O)C(=O)[C@@]2(O)C(O)=C3C(=O)c4c(O)cccc4[C@@](C)(O)[C@H]3C[C@@H]12 [TETRACYCLINE]
Not Active: IC50 [1] | IC50 (Mu-type opioid receptor) | IC50 [2] | Ki [2] | IC50 [3] | IC50 [4] | IC50 [5] | IC50 [6] | IC50 [7] | IC50 (Melanocortin receptor 4) | IC50 [8] | Ki [8] | IC50 [9] | IC50 [10] | IC50 [11] | Ki [11] | IC50 [12] | IC50 [13] | Ki [13] | IC50 [14] | Ki [14] | IC50 [15] | Ki [15] | IC50 [16] | Ki [16] | IC50 (Insulin receptor) | IC50 [17]

O=C1c2c(O)ccc(O)c2C(=O)c2c(NCCNCCO)ccc(NCCNCCO)c21 [MITOXANTRONE]
Not Active: IC50 [1] | IC50 (Mu-type opioid receptor) | IC50 [2] | Ki [2] | IC50 [3] | IC50 [4] | IC50 [5] | IC50 [6] | IC50 [7] | IC50 (Melanocortin receptor 4) | IC50 [8] | Ki [8] | IC50 [9] | IC50 [10] | IC50 [11] | Ki [11] | IC50 [12] | IC50 [13] | Ki [13] | IC50 [14] | Ki [14] | IC50 [15] | Ki [15] | IC50 [16] | Ki [16] | IC50 (Insulin receptor) | IC50 [17]

CN(N=O)C(=O)N[C@@H](C=O)[C@@H](O)[C@H](O)[C@H](O)CO [STREPTOZOCIN]
Not Active: IC50 [1] | IC50 (Mu-type opioid receptor) | IC50 [2] | Ki [2] | IC50 [3] | IC50 [4] | IC50 [5] | IC50 [6] | IC50 [7] | IC50 (Melanocortin receptor 4) | IC50 [8] | Ki [8] | IC50 [9] | IC50 [10] | IC50 [11] | Ki [11] | IC50 [12] | IC50 [13] | Ki [13] | IC50 [14] | Ki [14] | IC50 [15] | Ki [15] | IC50 [16] | Ki [16] | IC50 (Insulin receptor) | IC50 [17]

Nc1nnc(-c2cccc(Cl)c2Cl)c(N)n1 [LAMOTRIGINE]
Not Active: IC50 [1] | IC50 (Mu-type opioid receptor) | IC50 [2] | Ki [2] | IC50 [3] | IC50 [4] | IC50 [5] | IC50 [6] | IC50 [7] | IC50 (Melanocortin receptor 4) | IC50 [8] | Ki [8] | IC50 [9] | IC50 [10] | IC50 [11] | Ki [11] | IC50 [12] | IC50 [13] | Ki [13] | IC50 [14] | Ki [14] | IC50 [15] | Ki [15] | IC50 [16] | Ki [16] | IC50 (Insulin receptor) | IC50 [17]

Reference: ChEMBL document CHEMBL1909046, “DrugMatrix in vitro pharmacology data”
